Measured values published in article PMC13168289, “Potent acridone antimalarial against all three life stages of Plasmodium” (Nature Communications, 2026).
Several values for one entry are separate records, joined by “and”; a condition that tells them apart may be missing. Equal values may be shown once. Read-outs that look alike come from different tables or passages of the source.

Legend:
[1] = test system: P. cynomolgi hypnozoites and schizonts; assay: in vitro liver-stage P. cynomolgi assay in primary rhesus hepatocytes; type: cell-based, Plasmodium cynomolgi; conditions: read-out: inhibition IC50
Experimental: (§1) The liver-stage P. cynomolgi assay was designed to identify anti-hypnozoite drugs utilizing a 384-well in vitro culture system[31],[37]. Briefly, cryopreserved primary simian hepatocytes (donor lots XGB, OQB, and QHO: BioIVT, Inc.) were seeded in collagen-coated 384-well plates and infected with P. cynomolgi bastianellii (B strain) sporozoites dissected from infected Anopheles dirus mosquitoes. Test compounds were solubilized in 100% DMSO and serially diluted 2-fold to generate up to a 12-point dose-response curve, maintaining a final DMSO concentration of 0.1% across all wells. Two distinct treatment modes were evaluated. For the prophylactic assay, to assess the prevention of infection, compound exposure began 1-hour post-infection with daily media changes on Days 1 and 2. For the radical cure assay, to assess activity against established liver forms, drugs were administered daily from Day 4 through Day 7 post-infection. […] For readout on Day 8, plates were fixed and stained via immunofluorescence to visualize parasite forms (hypnozoites and schizonts) and hepatocyte nuclei, and images were acquired using an Operetta CLS high-content imaging system (PerkinElmer). Host hepatocyte viability was measured in parallel to determine compound toxicity. Parasite forms were automatically quantified using Harmony 4.9 software, and percent inhibition and toxicity were calculated relative to in-plate DMSO vehicle controls. IC50 and CC50 (half-maximal cytotoxic concentrations) were determined by fitting dose-response data to a four-parameter logistic (variable slope) model using a custom Python script incorporating a grid search algorithm.

rhesus hepatocytes = assay: host hepatocyte viability in the P. cynomolgi assay; type: cell-based; conditions: radical cure mode; read-out: cytotoxicity CC50
Experimental: as §1

[2] = test system: P. falciparum NF54 oocysts in mosquitoes; assay: tarsal contact assay; type: in vivo, P. falciparum in Anopheles gambiae G3; conditions: 5% by weight film, 6 min contact
Experimental: The tarsal assay using a thin film was performed. For preparation of a thin film, 25 mL xylenes and 1.0 g low density polyethylene polymer were combined on the lid of a glass petri dish (6 cm) and heated at 150 °C until the polymer was dissolved. Xylenes were occasionally replenished upon evaporation. A solution of xylenes containing […] prodrug was then added to the above solution. […] The crude polymer thin film was then put underneath the glass petri dish, and the assembled apparatus was heated on a hot plate with a weight placed on top. The resulting extruded polymer thin film containing the 5% (w/w) […] prodrug in low-density polyethylene (LDPE) was allowed to cool and removed from the petri dish lid. […] After exposure, the mosquitoes were immediately transferred to a cage and one hour later provided with cultured P. falciparum NF54 gametocyte-infected erythrocytes using a membrane feeder. […] On Day 7 post-infection, mosquitoes were aspirated into 80% ethanol and incubated at -20 °C for 10 min before being transferred to 1X PBS for dissection. […] Midguts were imaged and oocysts counted at 100× magnification on an Olympus Inverted CKX41 microscope to quantify oocyst prevalence and intensity.

[3] = pilot safety study in rhesus monkeys; type: in vivo; conditions: response to reviewers
blood-stage P. yoelii [4] = assay: 4-day suppression murine model, oral; type: in vivo, P. yoelii in CF1 mice
Source text: (§2) Animals were housed at the VAPORHCS in Thoren Maxi-Miser microisolator cages (78 sq. in. floor space) with a maximum density of five females or four males per cage. Cages were maintained on a 12-h light/dark cycle and provided with autoclaved nesting materials (nestlets) for environmental enrichment. All mice had ad libitum access to food and water. Four- to five-week-old female and male outbred CF1 mice (Charles River Laboratories, Raleigh, NC, USA) were randomly assigned to treatment and control groups using a simple randomization procedure (e.g., computer-generated random numbers) to ensure balanced distribution of baseline body weights and starting parasitemia levels across all cohorts. Groups of four mice (n = 4, mean body weight of each group was ~30 g) were infected intravenously with 3.5 × 10^4 P. yoelii (Kenya strain, MRA-428) from a donor animal. Drug administration commenced the day after the animals were inoculated (Day 1). The test drug or the drug combination was dissolved in PEG-400 and administered by oral gavage once daily for 4 successive days in the 4-day suppression model, but only once on Day 1 in the single-dose cure model. Blood was collected via the tail vein with the aid of a syringe needle on Day 5 and then at weekly intervals through Day 28. Blood films were Giemsa-stained and examined microscopically to determine the level of parasitemia. All mice were observed daily to assess clinical signs. Animals with observable parasitemia following the experiments were euthanized; animals cleared of parasitemia from their bloodstream were observed daily with assessment of parasitemia performed weekly until Day 28, at which point, the animal(s) were scored as cured of the infection and then humanely euthanized. All treated mice with a negative smear on Day 28 were considered cured (100% protection). […]

blood-stage P. yoelii [5] = assay: single-dose cure murine model, oral; type: in vivo, P. yoelii in CF1 mice
Source text: as §2

[6] = host hepatocyte viability in the P. cynomolgi assay; type: cell-based, rhesus; conditions: rhesus monkey; radical cure mode; read-out: cytotoxicity CC50
Experimental: as §1

[7] = test system: luciferase-expressing P. berghei sporozoites; assay: liver-stage prophylaxis murine model with IVIS bioluminescence imaging; type: in vivo, P. berghei in Albino C57BL/6 mice; conditions: Days -1, 0, 1
Source text: Four- to six-week-old female inbred Albino C57BL/6 mice (18–22 g, Jackson Laboratories, Bar Harbor, ME, USA) were utilized. Animals were assigned unique study numbers via ear tags and cage cards and were randomly assigned to treatment or control groups (n = 5 per group) using a weigh-stratified randomization procedure. All animals were quarantined and acclimatized for 7 days prior to study initiation and were housed in a 12:12 light/dark cycle with food and water provided ad libitum. Mice were infected intravenously with 10^4 luciferase-expressing P. berghei sporozoites (ANKA strain) via tail vein injection on Day 0. Drugs were dissolved in PEG-400 and administered orally once per day on Day -1, Day 0, and Day 1. […] Infection reduction was assessed by comparing the bioluminescence signals emitted by treated groups with signals emitted by the vehicle control-treated group at that time point. Later blood-stage parasitemia was determined via flow cytometry. […] Long-term blood-stage efficacy was evaluated starting on Day 6 post-infection and continued for up to 31 days using flow cytometry.
In vivo antimalarial efficacy studies were performed as described above.

[8] = cited from earlier work
[9] = set-up: method as in reviewer #3 remark; conditions: in humans; ref reviewer #3 remark; cited from earlier work
[10] = cytotoxicity against HepG2 cells; type: cell-based; conditions: human; HepG2; read-out: inhibition IC50 vs HepG2
Experimental: Cytotoxicity was evaluated in human HepG2 liver cells, using an MTT assay. Briefly, HepG2 cells were cultured in complete Dulbecco’s modified Eagle’s medium (DMEM; Gibco-Invitrogen, No. 11995-065) prepared by supplementing DMEM with 10% heat inactivated FBS (Gibco-Invitrogen, No. 16000-036), 100 units/mL penicillin, and 100 µg/mL streptomycin. Cell viability was assessed using trypan blue. Ninety-six-well plates were seeded with 2 × 10^4 cells per well and incubated at 37 °C overnight in a humidified 5% CO2 atmosphere. Test compound plates were prepared with an INTEGRA assist plus station and 96-well plates containing 11 duplicate 2-fold serial dilutions of test compound suspended in DMSO. The diluted test compound was then added to the corresponding well preseeded with HepG2 cells. […] After incubation, 20 µL of a 0.1 mg/mL solution of resazurin diluted in PBS was added to each well, and all plates were subsequently incubated for 3–4 h in an incubator. Absorbance was determined with the Molecular Devices SpectraMax plate reader. Three independent experiments, each in duplicate, were performed, and the IC50 values were determined using GraphPad Prism software (Version 10) using the non-linear regression equation (sigmoidal dose-response, variable slope).

[11] = test system: P. falciparum mutant T111 lines; assay: drug susceptibility of T111-selected cyt b mutant lines; type: cell-based, Plasmodium falciparum; conditions: Plasmodium falciparum, DD2, Supplementary Table 4
Experimental: DNA extractions were performed on clonal parasites using the QIAamp DNA extraction kit (QIAGEN Inc, Valencia, CA) or ZYMO Quick gDNA Miniprep kit (Zymo Research Corp, Irvine, CA). For sequencing of the open reading frame of pfcytb, PCR was performed with genomic DNA using forward and reverse flanking primers for cyt b primer 1: 5’-[…]-3’ and primer 2: 5’-[…]-3’. PCR products were subjected to enzymatic cleanup with ExoSAP-IT (Thermo Fisher Scientific) and sent for Sanger sequencing (Eurofins Genomics, Louisville, KY) with PCR primer 2 paired with an internal forward primer: 5’-[…]-3’ and an internal reverse primer: 5’-[…]-3’. Sequences were assembled using 4Peaks software (Nucleobytes, Amsterdam, Netherlands) and aligned with Clustal Omega (EMBL-EBI). For sequencing of the open reading frame of pfdhodh, PCR was performed with genomic DNA using forward primer: 5’-[…]-3’ and reverse primer: 5’-[…]-3’. PCR products were prepared for Sanger sequencing and analyzed as described above, except using two forward primers: 5’-[…]-3’ and 5’-[…]-3’ and with two reverse primers: 5’-[…]-3’ and 5’-[…]-3’.
(§3) Drug susceptibility assays against P. falciparum strains were performed using a SYBR Green based assay. D6 and Dd2 were obtained from MR4. Tm90-C2B was obtained from WRAIR. Dd2-D1^I22L and ELQ-300 were obtained from VAPORHCS. D10yDHODH was obtained as a courtesy from Dr. Akhil Vaidya at Drexel University. P. yoelii ATV^r and ELQ-300^r clones were obtained from VAPORHCS.

[12] = test system: P. falciparum D6, Dd2, Tm90-C2B, Dd2-D1^I22L, D10yDHODH; assay: microbe, parasite or virus in culture; type: cell-based, Plasmodium falciparum; conditions: Plasmodium falciparum
Experimental: as §3

[13] = Plasmodium cynomolgi, Hepatocyte, in Macaca mulatta, prophylactic mode, hypnozoite
[14] = Plasmodium cynomolgi, Hepatocyte, in Macaca mulatta, prophylactic mode, schizont
[15] = Plasmodium cynomolgi, Hepatocyte, in Macaca mulatta, radical cure mode, hypnozoite
[16] = Plasmodium cynomolgi, Hepatocyte, in Macaca mulatta, radical cure mode, schizont

CNC(=O)c1ccc(-c2cnc3cnc(C(=O)N(C)c4ccc(Cl)cc4)cn23)cc1 [KDU691]
IC50 ([1]; prophylactic mode, hypnozoite): 120 nM
IC50 ([1]; prophylactic mode, schizont): 98 nM
IC50 ([1]; radical cure mode, hypnozoite): > 20000 nM
IC50 ([1]; radical cure mode, schizont): 190 nM
CC50 (rhesus hepatocytes): > 20000 nM

CCOC(=O)Oc1c2ccc(Oc3ccc(OC(F)(F)F)cc3)cc2nc2cc(Cl)cc(F)c12 [T111 prodrug]
reduction in oocyst intensity (inhibition) [2]: 97.6%
reduction in oocyst prevalence (inhibition) [2]: 92.5%
tolerability [3]: well-tolerated

COc1cc(C)c2c(Oc3cccc(C(F)(F)F)c3)c(OC)cc(NC(C)CCCN)c2n1 (stereo not drawn) [TQ, tafenoquine]
ED50 of TQ (blood-stage P. yoelii [4]; TQ + 0.03 mg/kg/d T111): 0.59 mg/kg/day
ED50 of TQ (blood-stage P. yoelii [4]; TQ + 0.06 mg/kg/d T111): 0.12 mg/kg/day
ED50 of TQ (blood-stage P. yoelii [4]; TQ + 0.12 mg/kg/d T111): 0.05 mg/kg/day
ED50 of TQ (blood-stage P. yoelii [4]; TQ alone, female CF1 mice): 1.70 mg/kg/day
% survival through Day 28 (blood-stage P. yoelii [5]; TQ 15 + T111 0 mg/kg): 0%
number of mice cured on Day 28 (blood-stage P. yoelii [5]; TQ 15 + T111 0 mg/kg): 0/4
parasitemia burden on Day 5 (blood-stage P. yoelii [5]; TQ 15 + T111 0 mg/kg): 0
% survival through Day 28 (blood-stage P. yoelii [5]; TQ 20 + T111 0 mg/kg): 25%
number of mice cured on Day 28 (blood-stage P. yoelii [5]; TQ 20 + T111 0 mg/kg): 1/4
parasitemia burden on Day 5 (blood-stage P. yoelii [5]; TQ 20 + T111 0 mg/kg): 0
% survival through Day 28 (blood-stage P. yoelii [5]; TQ 30 + T111 0 mg/kg): 75%
number of mice cured on Day 28 (blood-stage P. yoelii [5]; TQ 30 + T111 0 mg/kg): 3/4
parasitemia burden on Day 5 (blood-stage P. yoelii [5]; TQ 30 + T111 0 mg/kg): 0
% survival through Day 28 (blood-stage P. yoelii [5]; TQ 40 + T111 0 mg/kg): 100%
number of mice cured on Day 28 (blood-stage P. yoelii [5]; TQ 40 + T111 0 mg/kg): single-dose cure in all treated mice and 4/4
parasitemia burden on Day 5 (blood-stage P. yoelii [5]; TQ 40 + T111 0 mg/kg): 0
IC50 [1, 13]: 180 nM
IC50 [1, 14]: 170 nM
IC50 [1, 15]: 8100 nM
IC50 [1, 16]: 9800 nM
CC50 at 4 days [6]: > 20000 nM
protection from liver-stage infection ([7]; 1 mg/kg/day oral): did not clear liver-stage infection
protection from liver-stage infection ([7]; 10 mg/kg/day oral): full protection
T1/2 ([8]; mouse liver, ref internal data from WRAIR): 75 h
T1/2 ([8]; mouse plasma, ref internal data from WRAIR): 50 h
T1/2 [9]: 336 h

CCN(CC)CCCC(C)Nc1ccnc2cc(Cl)ccc12 (stereo not drawn) [CQ, chloroquine]
IC50 at 24 h [10]: 68600 nM
IC50 ([11]; Dd2): 181 ± 15 nM
IC50 ([11]; Dd2-A131S-140I-259L-264L): 205 ± 21 nM
IC50 ([11]; Dd2-B131S-140I-259L-264L): 168 ± 31 nM
IC50 ([11]; Dd2-D0119L-131S-259L (pfdhodh mutation)): 210 ± 34 nM
IC50 ([11]; Dd2-D1131S-140I-259L (pfdhodh mutation)): 162 ± 18 nM
IC50 ([12]; read-out: in vitro IC50 vs P. falciparum, D6): 14 ± 0.7 nM
IC50 ([12]; read-out: in vitro IC50 vs P. falciparum, D10yDHODH): 79 ± 16 nM
IC50 ([12]; read-out: in vitro IC50 vs P. falciparum, Dd2-D1^I22L (ELQ-300-resistant)): 209 ± 26 nM
IC50 ([12]; read-out: in vitro IC50 vs P. falciparum, Tm90-C2B (cyt b Y268S, ATV-resistant)): 211 ± 7.6 nM
T1/2 ([8]; healthy mice, ref PMID: 21646487): about 46 h
T1/2 [9]: 480 to 960 h

CO[C@@H]1[C@@H](OC)[C@H](C)[C@@](O)(CC(=O)O)O[C@H]1[C@H](C)[C@H]1O[C@@]2(CC[C@@](C)([C@H]3CC[C@@](C)([C@@H]4O[C@@H]([C@H]5O[C@](C)(O)[C@H](C)C[C@@H]5C)C[C@@H]4O[C@@H]4C[C@H](OC)[C@@H](OC)[C@H](C)O4)O3)O2)C[C@H](O)[C@H]1C [MAD, maduramicin]
IC50 [1, 13]: < 0.98 nM
IC50 [1, 14]: < 0.98 nM
IC50 [1, 15]: 21 nM
IC50 [1, 16]: 41 nM
CC50 at 4 days [6]: 360 nM
